{"source": "patent US7074422B2", "about": "“Fungicidal mixtures” (BASF Aktiengesellschaft, priority 2002, dated 2006)", "system": "Plasmopara viticola", "assay": "Activity against Peronospora of vines caused by Plasmopara viticola (persistence test on potted vines)", "assay_type": "in vivo", "conditions": "individual active compound, vines \"Müller-Thurgau\", inoculated 3 days after spraying", "description": "The active compounds were prepared separately or together as a stock solution comprising 0.25% of active compound in acetone or DMSO. 1% by weight of the emulsifier Uniperol® EM (wetting agent having emulsifying and dispersing action based on ethoxylated alkylphenols) was added, and the mixture was diluted with water to the desired concentration.\nEvaluation is carried out by determining the infected leaf areas in percent. These percentages are converted into efficacies. The expected efficacies of the active compound mixtures are determined using Colby's formula [R. S. Colby, Weeds 15, 20-22 (1967)] and compared with the observed efficacies.\nColby's formula: E=x+y−x.y/100 • E expected efficacy, expressed in % of the untreated control, when using the mixture of the active compounds A and B at the concentrations a and b • x efficacy, expressed in % of the untreated control, when using active compound A at a concentration of a • y efficacy, expressed in % of the untreated control, when using active compound B at a concentration of b\nThe efficacy (E) is calculated as follows using Abbot's formula: E=(1−α/β)·100 • α corresponds to the fungal infection of the treated plants in % and • β corresponds to the fungal infection of the untreated (control) plants in %\nAn efficacy of 0 means that the infection level of the treated plants corresponds to that of the untreated control plants; an efficacy of 100 means that the treated plants were not infected.\nLeaves of potted vines of the cultivar “Müller-Thurgau” were sprayed to runoff point with an aqueous suspension having the concentration of active compound stated below. To be able to assess the persistence of the substances, the plants were, after the spray coating had dried on, placed in a green house for 3 days. Only then were the leaves inoculated with an aqueous zoospore suspension of Plasmopara viticola. The vines were then initially placed in a water-vapor-saturated chamber at 24° C. for 48 hours and then in a greenhouse at 20-30° C. for 5 days. After this period of time, the plants were again placed in a moist chamber for 16 hours to promote sporangiophore eruption. The extent to which the infection had developed on the undersides of the leaves was then determined visually."}
{"compound": "CCCOC(=O)NCCN(C)C", "note": "[I, propyl (2-dimethylaminoethyl)carbamate]", "values": [{"measurement": "Efficacy in % of the untreated control", "setting": "3.75 ppm in the spray liquor", "result": "0 % of the untreated control"}, {"measurement": "Efficacy in % of the untreated control", "setting": "7.5 ppm in the spray liquor", "result": "0 % of the untreated control"}, {"measurement": "Efficacy in % of the untreated control", "setting": "15 ppm in the spray liquor", "result": "0 % of the untreated control"}, {"measurement": "Efficacy in % of the untreated control", "setting": "30 ppm in the spray liquor", "result": "0 % of the untreated control"}]}
{"compound": "N#Cc1sc2c(=O)c3ccccc3c(=O)c=2sc1C#N", "note": "[II, dithianon]", "values": [{"measurement": "Efficacy in % of the untreated control", "setting": "30 ppm in the spray liquor", "result": "89 % of the untreated control"}]}
